Laboratory results taken from US9050346B2, “Bromodomain inhibitors” (AbbVie Inc., priority 2013, dated 2015).

How the values were obtained:
BRD4 (BDI_K57-E168) = biological target: T1, BRD4 (BDI_K57-E168) (Homo sapiens, UniProt O60885); assay: TR-FRET bromodomain binding assay, BRD4 first bromodomain; details: His-tagged BD1, 100 nM Alexa647 probe; Ki calculated from IC50; dilution protocol A-G
T1 construct: BD1: amino acids K57-E168; made in house
In short: (§1)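 His-tagged BRD4 BD1 (K57-E168) or BD2 (8 nM) with Eu-anti-His antibody and Alexa647-labeled BET-inhibitor probe (100 nM for BDI, 30 nM for BDII), pH 6.0 phosphate buffer, 2% DMSO, 1 h at room temperature. TR-FRET (Ex 340, Em 495/520); IC50 by 4-parameter fit, converted to Ki using probe Kd and concentration.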

BRD4 (BDII_E352-M457) = biological target: T2, BRD4 (BDII_E352-M457) (Homo sapiens, UniProt O60885); assay: TR-FRET bromodomain binding assay, BRD4 second bromodomain
T2 construct: made in house
In short: as §1

[1] = system: breast cancer cell line MX-1; assay: MX-1 cell line proliferation assay (3-day, Cell Titer Glo); format: cell-based; details: Homo sapiens, MX1, MX-1 cells, 72 h, top concentration 3 μM, read-out: Cellular proliferation: EC50
In short: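 MX-1 cells, 5000/well in RPMI 1640 with 10% FBS, adhered overnight, then treated 3 days with compound at final 3 to 0.0001 μM (3-fold steps). Cell Titer Glo luminescence normalized to DMSO-treated cells; EC50 from sigmoidal fit.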

[2] = system: LPS induced IL-6 production; assay: LPS (lipopolysaccharide) induced IL-6 production mouse assay; format: in vivo; details: 3 mg/kg oral, 1 h before LPS 2.5 mg/kg i.p.; serum IL-6 2 h after LPS; SCID female mice; all p<0.05
Experimental: Compounds of the Examples listed in Table 2 were assayed for their ability to inhibit LPS (lipopolysaccharide) induced IL-6 (Interleukin-6) production in mice. Fox Chase SCID® female mice (Charles Rivers Labs, 5 per group) received an intraperitoneal challenge of lipopolysaccharide (2.5 mg/kg, L2630 E. coli 0111:B4) one hour after oral administration of compounds. Mice were euthanized 2 hours after lipopolysaccharide injection, blood was removed by cardiac puncture, and then the serum harvested from the blood samples was frozen at −80° C. On the day of the assay the serum samples were brought to room temperature and then diluted 1:20 in phosphate-buffered saline containing 2% bovine serum albumin. Interleukin-6 measurements were performed using a cytokine assay from Meso Scale Discovery (Gaithersburg, Md.) for mouse serum analysis according to the manufacturer's protocol and read on a SECTOR Imager 6000 (Meso Scale Discovery, Gaithersburg, Md.) instrument. Statistical analysis was performed using Prism software (version 5.0) incorporating Dunnett's one way ANOVA. The IL-6 mean and standard deviation of the group of vehicle treated animals were compared with the IL-6 mean and standard deviation of the group treated with drug. A p value<0.05 means that there is less than a 5% probability that the mean values in the two groups are equal.
Xenograft Tumor Growth Inhibition Assay

Row | SMILES | Ki (BRD4 (BDI_K57-E168)) [nM] | Ki (BRD4 (BDII_E352-M457)) [nM] | EC50 [1] [nM] | % inhibition of LPS induced IL-6 production at 3 mg/kg [2] [%]
1 | Cc1[nH]c(-c2cc(C#N)ccc2Oc2ccc(F)cc2F)c2cn[nH]c(=O)c12 [Example 82, 4-(2,4-difluorophenoxy)-3-(7-methyl-1-oxo-2,6-dihydro-1H-pyrrolo[3,4-d]pyridazin-5-yl)benzonitrile] | 36.7 | 357 | 167 | 44
2 | CCCNC(=O)c1cc2c(-c3cc(N)ccc3Oc3ccc(F)cc3F)[nH]c(C)c2c(=O)[nH]1 [Example 43, 1-[5-amino-2-(2,4-difluorophenoxy)phenyl]-3-methyl-4-oxo-N-propyl-4,5-dihydro-2H-pyrrolo[3,4-c]pyridine-6-carboxamide] | 15.9 | 25.4 | 150 | 39
3 | COCCNC(=O)c1cc2c(-c3ccccc3Oc3ccccc3)[nH]c(C)c2c(=O)[nH]1 [Example 29, N-(2-methoxyethyl)-3-methyl-4-oxo-1-(2-phenoxyphenyl)-4,5-dihydro-2H-pyrrolo[3,4-c]pyridine-6-carboxamide] | 10.6 | 46.7 | 114 | 40

The next lines start with results.

Row | Ki (BRD4 (BDI_K57-E168)) [nM] | Ki (BRD4 (BDII_E352-M457)) [nM] | EC50 [1] [nM] | SMILES | % inhibition of LPS induced IL-6 production at 3 mg/kg [2] [%]
4 | 1.47 | 21.5 | 24 | COC(=O)c1cc2c(-c3cc(N)ccc3Oc3ccccc3)[nH]c(C)c2c(=O)[nH]1 [Example 2, methyl 1-(5-amino-2-phenoxyphenyl)-3-methyl-4-oxo-4,5-dihydro-2H-pyrrolo[3,4-c]pyridine-6-carboxylate] | 25
5 | 17.2 | 32.4 | 91.9 | Cc1[nH]c(-c2cc(N)ccc2Oc2ccccc2)c2c1C(=O)NCC2 [Example 94, 1-(5-amino-2-phenoxyphenyl)-3-methyl-2,5,6,7-tetrahydro-4H-pyrrolo[3,4-c]pyridin-4-one] | 27
